Measurements from patent publication US10941157B2, “Pesticidal compositions and uses thereof” (Gilead Apollo, LLC, priority 2015, dated 2021).
Converted amounts (≈) assume the structure as drawn.

How the values were obtained:
[1] = test system: Botrtyis cinerea (Bc); experiment: In vitro pathogen growth inhibition assay, Bc; assay type: cell-based; details: 48 h, ≥90% inhibition; 48 hours vs 2% DMSO control; read-out: Compound Concentration (ppm) sufficient for ≥90% inhibition of growth, Bc
Outline: (§1)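 Spores in 17% V8 liquid medium, or 1.5 mm Rs mycelial plugs in ¼ PDB, incubated with compound; final concentration checked by OD600 for precipitation. OD readings at 24 and 48 h, blank-subtracted, plus visual ratings; value is concentration giving ≥90% growth inhibition.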

[2] = test system: Fusarium virguliforme (Fv); experiment: In vitro pathogen growth inhibition assay, Fv; assay type: cell-based; details: ≥90% inhibition, 48 hours vs 2% DMSO control, read-out: Compound Concentration (ppm) sufficient for ≥90% inhibition of growth, Fv
Outline: (§2)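 Spores of Dm, Fv and Pc were diluted in 17% V8 liquid medium; Rs used 1.5 mm mycelial plugs in ¼ PDB. Compounds from 2.5 mg/ml DMSO stocks were combined with inoculum, growth was read by OD600 at 24 and 48 h with blank subtraction, and the reported value is the concentration giving ≥90% inhibition.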

[3] = test system: Collectotrichum graminicola (Cg); experiment: In vitro pathogen growth inhibition assay, Cg; assay type: cell-based; details: 48 h, ≥90% inhibition; 48 hours vs 2% DMSO control; read-out: Compound Concentration (ppm) sufficient for ≥90% inhibition of growth, Cg
Outline: as §1

[4] = test system: Puccinia triticina; experiment: Foliar protection test for wheat leaf rust control; assay type: in vivo; details: foliar application to wheat (Triticum aestivum cv. Winterhawk), evaluated 10 days later
[5] = test system: Blumeria graminis f. sp. hordei; experiment: Foliar protection test for barley powdery mildew control; assay type: in vivo; details: foliar spray on Hordeum vulgare cv. Perry, inoculated 24 hours after treatment, evaluated 7 days later
Outline: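 Six-day-old barley (cv. Perry) sprayed to wetness on both leaf sides; 24 h later inoculated by shaking spores from infected stock plants. Kept at 20 to 22° C, 70% relative humidity; mildew colonization assessed 7 days later.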

[6] = test system: Mycosphaerella graminicola (synthetic Septoria tritici); experiment: Foliar protection test for wheat septoria leaf blotch control; assay type: in vivo; details: foliar spray on Triticum aestivum cv. WinterHawk, inoculated 1 hour after treatment, evaluated 16 days later
[7] = test system: Fusarium graminearum; assay type: in vivo; details: spray on flowering Triticum aestivum cv. Samson, inoculated 24 hours after treatment, evaluated 14 days later
[8] = test system: Phytophthora capsici (Pc); experiment: In vitro pathogen growth inhibition assay, Pc; assay type: cell-based; details: 48 h, ≥90% inhibition, 48 hours vs 2% DMSO control, read-out: Compound Concentration (ppm) sufficient for ≥90% inhibition of growth, Pc
Outline: as §2

[9] = test system: Diplodia maydis (Dm); experiment: In vitro pathogen growth inhibition assay, Dm; assay type: cell-based; details: Stenocarpella maydis, 48 h, ≥90% inhibition; 48 hours vs 2% DMSO control; read-out: Compound Concentration (ppm) sufficient for ≥90% inhibition of growth, Dm
Outline: as §2

[10] = test system: Sphaerotheca fuliginea; experiment: Foliar protection for cucumber powdery mildew control; assay type: in vivo; details: foliar spray on Cucumis sativus cv. Straight Eight, inoculated 24 hours after treatment, evaluated 7 days later
Outline: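 Cucumber plants (cv. Straight Eight, 10 days old) sprayed to wetness on both leaf surfaces, then inoculated 24 h later by shaking sporulating stock plants over them. Held at 23–27 °C, 16 h light, 60% RH. Mildew colonization scored 7 days after inoculation, at compound concentrations of 10 ppm or lower.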

[11] = test system: Rhizoctonia solani (Rs); experiment: In vitro pathogen growth inhibition assay, Rs (mycelial plugs); assay type: cell-based; details: Rhizoctonia solani, 48 h, ≥90% inhibition; mycelial plugs; 48 hours vs 2% DMSO control; read-out: Compound Concentration (ppm) sufficient for ≥90% inhibition of growth, Rs
Outline: as §2

[12] = test system: Fusarium moniliforme (Fm); experiment: In vitro pathogen growth inhibition assay, Fm; assay type: cell-based; details: Fusarium verticillioides; ≥90% inhibition; 48 hours vs 2% DMSO control; read-out: Compound Concentration (ppm) sufficient for ≥90% inhibition of growth, Fm
Outline: as §1

[13] = test system: Septoria tritici (St); experiment: In vitro pathogen growth inhibition assay, St; assay type: cell-based; details: Zymoseptoria tritici, 48 h, ≥90% inhibition; 48 hours vs 2% DMSO control; read-out: Compound Concentration (ppm) sufficient for ≥90% inhibition of growth, St
Outline: as §1

[14] = test system: Phakopsora pachyrhizi; experiment: Foliar protection test for Asian soybean rust control; assay type: in vivo; details: foliar application to soybean (Glycine max AG4832), percent disease area evaluated 14 days later
[15] = test system: Saccharomyces cerevisiae (Sc); experiment: Yeast growth inhibition assay; assay type: cell-based; details: Saccharomyces cerevisiae, ≥75% inhibition, read-out: Compound Concentration (ppm) sufficient for ≥75% inhibition, Sc
Method: Both tables list the concentration of each compound that was sufficient to ≥90% inhibition of growth for each of the fungal pathogens listed above. In addition, some of compounds were tested in a yeast growth inhibition assay for Saccharomyces cerevisiae (Sc). Table 2 lists the concentration of the tested compound that was sufficient to ≥75% inhibition of Saccharomyces cerevisiae (Sc).

Structure (SMILES) | IC90 [1] [µg/mL] | IC90 [2] [µg/mL] | IC90 [3] [µg/mL] | Wheat Leaf Rust Control at a compound concentration of 10 ppm or lower [4] | Barley Powdery Mildew Control at a compound concentration of 10 ppm or lower [5] | Septoria Leaf Blotch Control at a compound concentration of 25 ppm or lower [6] | Wheat Fusarium Head Blight Control at a compound concentration of 25 ppm or lower [7] | IC90 [8] [µg/mL] | IC90 [9] [µg/mL] | Cucumber Powdery Mildew Control at a compound concentration of 10 ppm or lower [10] | IC90 [11] [µg/mL] | IC90 [12] [µg/mL] | IC90 [13] [µg/mL] | Asian Soybean Rust Control at a compound concentration of 25 ppm or lower [14] | IC75 [15] [µg/mL]
CCOC(=O)c1sc2c(c1C)c(=O)n(C(C)(C)C(=O)N1CCCC1)c(=O)n2C[C@H](OC1CCOCC1)c1ccccc1OC [Compound I-003, (R)-ethyl-1-(2-(2-methoxyphenyl)-2-((tetrahydro-2H-pyran-4-yl)oxy)ethyl)-5-methyl-3-(2-methyl-1-oxo-1-(pyrrolidin-1-yl)propan-2-yl)-2,4-dioxo-1,2,3,4-tetrahydrothieno[2,3-d]pyrimidine-6-carboxylate] | 2 (≈ 3.19 µM) | 0.4 (≈ 0.637 µM) | 0.4 (≈ 0.637 µM) | AA (≥85% control of wheat leaf rust) | A (from 70% to 84% control of barley powdery mildew) | C (from 25 to 49% control of wheat septoria leaf blotch) | B (from 50 to 69% control of wheat fusarium head blight) | > 50 | 2 (≈ 3.19 µM) | AA (≥85% control of cucumber powdery mildew) | 0.4 (≈ 0.637 µM) | 0.08 (≈ 0.127 µM) | ≥ 10 | A (from 70% to 84% control of Asian soybean rust) | 0.4 (≈ 0.637 µM)
COc1ccccc1[C@H](Cn1c(=O)n(C(C)(C)C(=O)NC(C)C)c(=O)c2c(C)c(-c3ncco3)sc21)OC(C)C [Compound I-001] | ≥ 0.4 | 0.4 (≈ 0.703 µM) | ≥ 2 | – | – | – | – | > 50 | 2 (≈ 3.52 µM) | – | 50 (≈ 87.9 µM) | 0.08 (≈ 0.141 µM) | > 10 | – | 1.2 (≈ 2.11 µM)
COc1ccc(F)cc1[C@H](Cn1c(=O)n(C(C)(C)C(=O)NC(C)C)c(=O)c2c(C)c(-n3cccn3)sc21)OC(C)C [Compound I-014, (R)-2-(1-(2-(5-fluoro-2-methoxyphenyl)-2-isopropoxyethyl)-5-methyl-2,4-dioxo-6-(1H-pyrazol-1-yl)-1,4-dihydrothieno[2,3-d]pyrimidin-3(2H)-yl)-N-isopropyl-2-methylpropanamide] | 0.4 (≈ 0.683 µM) | 0.4 (≈ 0.683 µM) | 2 (≈ 3.41 µM) | A (from 70% to 84% control of wheat leaf rust) | AA (≥85% control of barley powdery mildew) | D (<25% control of wheat septoria leaf blotch) | C (from 25 to 49% control of wheat fusarium head blight) | > 50 | 2 (≈ 3.41 µM) | AA (≥85% control of cucumber powdery mildew) | 2 (≈ 3.41 µM) | 0.08 (≈ 0.137 µM) | > 10 | A (from 70% to 84% control of Asian soybean rust) | 1.2 (≈ 2.05 µM)
COc1ccccc1[C@H](Cn1c(=O)n(C(C)(C)C(=O)N2CCCCC2)c(=O)c2c(C)c(-c3ncco3)sc21)OC1CCC(=O)CC1 [Compound I-106] | 2 (≈ 3.08 µM) | 2 (≈ 3.08 µM) | 10 (≈ 15.4 µM) | – | – | – | – | > 50 | 2 (≈ 3.08 µM) | – | 50 (≈ 77.1 µM) | 0.4 (≈ 0.617 µM) | > 50 | – | 33.3 (≈ 51.3 µM)
COc1ccc(F)cc1[C@H](Cn1c(=O)n(C(C)(C)C(N)=O)c(=O)c2c(C)c(-c3ncco3)sc21)OC1CCOCC1 [Compound I-101] | 10 (≈ 17 µM) | 10 (≈ 17 µM) | 10 (≈ 17 µM) | – | – | – | – | 50 (≈ 85.2 µM) | 10 (≈ 17 µM) | – | 50 (≈ 85.2 µM) | 0.4 (≈ 0.682 µM) | > 50 | – | 3.7 (≈ 6.31 µM)
COc1ccccc1[C@H](Cn1c(=O)n(C(C)(C)C(=O)NC(C)C)c(=O)c2c(C)c(-c3ncco3)sc21)OC1CCC(=O)CC1 [Compound I-013] | 0.4 (≈ 0.642 µM) | 2 (≈ 3.21 µM) | 10 (≈ 16.1 µM) | – | – | – | – | > 50 | 0.4 (≈ 0.642 µM) | – | 10 (≈ 16.1 µM) | 0.08 (≈ 0.128 µM) | ≥ 10 | – | 0.14 (≈ 0.225 µM)
CCOC(=O)c1sc2c(c1C)c(=O)n(C(C)(C)C(=O)NC(C)C)c(=O)n2C[C@H](OC(C)C)c1ccccc1OC [Compound I-009] | 0.4 (≈ 0.697 µM) | 0.4 (≈ 0.697 µM) | 2 (≈ 3.49 µM) | – | – | – | – | > 50 | 0.4 (≈ 0.697 µM) | – | 10 (≈ 17.4 µM) | 0.08 (≈ 0.139 µM) | > 50 | – | 3.7 (≈ 6.45 µM)
CCOC(=O)c1sc2c(c1C)c(=O)n(C(C)(C)C(=O)O)c(=O)n2C[C@H](OC(C)C)c1ccccc1OC [Compound I-153] | 2 (≈ 3.76 µM) | > 50 | > 50 | – | – | – | – | > 50 | 50 (≈ 93.9 µM) | – | 50 (≈ 93.9 µM) | 2 (≈ 3.76 µM) | > 50 | – | > 33.3
CCNC(=O)C(C)(C)n1c(=O)c2c(C)c(-c3ncco3)sc2n(C[C@H](O[C@H]2CC[C@@H](O)CC2)c2ccccc2OC)c1=O [Compound I-010] | 0.4 (≈ 0.655 µM) | 2 (≈ 3.27 µM) | 50 (≈ 81.9 µM) | – | – | – | – | > 50 | ≥ 2 | – | 50 (≈ 81.9 µM) | 0.08 (≈ 0.131 µM) | > 50 | – | 0.4 (≈ 0.655 µM)
COc1ccccc1[C@H](Cn1c(=O)n(C(C)(C)C(=O)OCc2ccccc2)c(=O)c2c(C)c(-c3ncco3)sc21)OC1CCC(=O)CC1 [Compound I-107] | 0.4 (≈ 0.595 µM) | > 50 | > 50 | – | – | – | – | > 50 | ≥ 0.4 | – | > 50 | 0.4 (≈ 0.595 µM) | > 50 | – | > 33.3
